Patent US20150005281A1, “PYRIMIDINE-2,4-DIAMINE DERIVATIVES AS KINASE INHIBITORS” (Cellzome Limited, priority 2011, published 2015)

Key:
Format in all cases: binding
[1] = molecular target: T1, JAK1 (Homo sapiens, UniProt P23458); test: Kinobeads assay with immunodetection, JAK1; conditions: for IC50: Kinobeads assay, mixed Molt4/Ramos lysate, read-out: Inhibition values (IC50) JAK1
T1 construct: endogenous in cells; host or cells: Molt4 (ATCC CRL-1582) and Ramos (ATCC CRL-1596) cells; mixed lysate 1:2
T1 sequence (P23458 whole entry): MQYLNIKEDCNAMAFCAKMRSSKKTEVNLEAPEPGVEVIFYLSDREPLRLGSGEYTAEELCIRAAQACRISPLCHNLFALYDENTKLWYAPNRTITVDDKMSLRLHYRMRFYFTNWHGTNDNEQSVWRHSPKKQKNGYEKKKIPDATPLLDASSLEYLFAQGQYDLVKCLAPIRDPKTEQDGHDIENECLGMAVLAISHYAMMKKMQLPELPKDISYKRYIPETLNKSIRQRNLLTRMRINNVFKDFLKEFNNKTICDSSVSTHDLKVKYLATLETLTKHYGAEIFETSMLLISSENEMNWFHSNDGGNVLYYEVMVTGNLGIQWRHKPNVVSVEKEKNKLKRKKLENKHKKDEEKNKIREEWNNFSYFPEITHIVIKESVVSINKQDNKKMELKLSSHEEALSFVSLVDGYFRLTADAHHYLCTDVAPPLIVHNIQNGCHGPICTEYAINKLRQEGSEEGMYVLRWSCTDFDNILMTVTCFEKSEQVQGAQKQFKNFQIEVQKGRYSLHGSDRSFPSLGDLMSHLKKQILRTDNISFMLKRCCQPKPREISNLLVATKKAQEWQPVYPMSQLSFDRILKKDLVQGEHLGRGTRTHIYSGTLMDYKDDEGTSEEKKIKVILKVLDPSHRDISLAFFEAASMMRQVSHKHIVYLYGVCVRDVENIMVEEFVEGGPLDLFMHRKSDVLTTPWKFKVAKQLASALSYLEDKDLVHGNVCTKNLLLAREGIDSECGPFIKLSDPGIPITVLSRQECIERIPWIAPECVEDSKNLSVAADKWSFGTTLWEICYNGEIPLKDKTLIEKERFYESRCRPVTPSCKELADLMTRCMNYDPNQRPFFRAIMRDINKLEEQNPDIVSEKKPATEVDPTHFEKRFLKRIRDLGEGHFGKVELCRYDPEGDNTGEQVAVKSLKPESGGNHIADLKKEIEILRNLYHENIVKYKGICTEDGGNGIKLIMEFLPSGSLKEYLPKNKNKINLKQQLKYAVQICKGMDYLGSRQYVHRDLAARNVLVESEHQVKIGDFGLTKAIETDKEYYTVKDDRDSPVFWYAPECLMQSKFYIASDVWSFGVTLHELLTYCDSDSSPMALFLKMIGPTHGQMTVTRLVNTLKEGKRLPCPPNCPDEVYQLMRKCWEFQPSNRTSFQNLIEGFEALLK
How it was run: (§1)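 Competition binding: test compounds (9-step 1:3 dilutions of a 5 mM DMSO stock) compete with affinity matrix ligand for kinases in Molt4 plus Ramos lysate (ratio 1:2, 10 mg/mL) over 3 h in a cold room. Captured kinases are detected by specific antibodies in dot blot, and IC50 values are derived per kinase.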

[2] = molecular target: T2, JAK2 (Homo sapiens, UniProt O60674); test: Kinobeads assay with immunodetection, JAK2; conditions: mixed Molt4/Ramos lysate, read-out: Inhibition values (IC50) JAK2
T2 construct: endogenous in cells; host or cells: Molt4 (ATCC CRL-1582) and Ramos (ATCC CRL-1596) cells; mixed lysate 1:2
T2 sequence (O60674 whole entry): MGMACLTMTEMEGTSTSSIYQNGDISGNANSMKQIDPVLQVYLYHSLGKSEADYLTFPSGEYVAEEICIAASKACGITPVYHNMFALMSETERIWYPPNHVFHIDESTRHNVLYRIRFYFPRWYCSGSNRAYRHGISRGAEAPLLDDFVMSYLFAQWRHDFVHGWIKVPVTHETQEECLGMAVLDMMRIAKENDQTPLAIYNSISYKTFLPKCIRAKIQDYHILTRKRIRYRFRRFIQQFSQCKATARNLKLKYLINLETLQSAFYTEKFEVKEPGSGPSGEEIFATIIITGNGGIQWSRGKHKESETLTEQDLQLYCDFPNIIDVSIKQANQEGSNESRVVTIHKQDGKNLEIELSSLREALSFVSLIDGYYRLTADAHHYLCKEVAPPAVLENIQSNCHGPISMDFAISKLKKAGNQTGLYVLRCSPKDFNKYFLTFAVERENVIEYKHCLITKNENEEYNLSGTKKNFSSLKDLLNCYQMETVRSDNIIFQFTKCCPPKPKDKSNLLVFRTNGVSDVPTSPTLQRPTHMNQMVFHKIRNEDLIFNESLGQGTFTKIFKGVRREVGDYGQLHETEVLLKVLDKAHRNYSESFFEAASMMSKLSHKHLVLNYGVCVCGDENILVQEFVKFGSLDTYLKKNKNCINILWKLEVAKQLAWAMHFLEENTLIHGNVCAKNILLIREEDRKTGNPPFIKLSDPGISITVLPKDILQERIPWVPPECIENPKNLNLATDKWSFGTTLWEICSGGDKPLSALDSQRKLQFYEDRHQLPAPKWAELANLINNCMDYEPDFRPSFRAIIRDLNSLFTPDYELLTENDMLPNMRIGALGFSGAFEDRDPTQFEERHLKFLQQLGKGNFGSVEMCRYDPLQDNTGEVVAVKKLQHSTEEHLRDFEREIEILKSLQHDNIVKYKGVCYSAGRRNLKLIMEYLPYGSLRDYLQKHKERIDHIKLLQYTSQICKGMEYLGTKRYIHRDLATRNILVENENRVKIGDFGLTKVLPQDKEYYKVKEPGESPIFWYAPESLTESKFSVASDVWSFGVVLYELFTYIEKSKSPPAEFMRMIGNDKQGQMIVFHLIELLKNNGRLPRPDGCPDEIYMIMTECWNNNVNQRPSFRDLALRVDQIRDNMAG
How it was run: as §1

[3] = molecular target: T3, JAK3 (Homo sapiens, UniProt P52333); test: Kinobeads assay with immunodetection, JAK3; conditions: for IC50: Kinobeads assay, mixed Molt4/Ramos lysate, read-out: Inhibition values (IC50) JAK3
T3 construct: endogenous in cells; host or cells: Molt4 (ATCC CRL-1582) and Ramos (ATCC CRL-1596) cells; mixed lysate 1:2
T3 sequence (P52333 1-1124): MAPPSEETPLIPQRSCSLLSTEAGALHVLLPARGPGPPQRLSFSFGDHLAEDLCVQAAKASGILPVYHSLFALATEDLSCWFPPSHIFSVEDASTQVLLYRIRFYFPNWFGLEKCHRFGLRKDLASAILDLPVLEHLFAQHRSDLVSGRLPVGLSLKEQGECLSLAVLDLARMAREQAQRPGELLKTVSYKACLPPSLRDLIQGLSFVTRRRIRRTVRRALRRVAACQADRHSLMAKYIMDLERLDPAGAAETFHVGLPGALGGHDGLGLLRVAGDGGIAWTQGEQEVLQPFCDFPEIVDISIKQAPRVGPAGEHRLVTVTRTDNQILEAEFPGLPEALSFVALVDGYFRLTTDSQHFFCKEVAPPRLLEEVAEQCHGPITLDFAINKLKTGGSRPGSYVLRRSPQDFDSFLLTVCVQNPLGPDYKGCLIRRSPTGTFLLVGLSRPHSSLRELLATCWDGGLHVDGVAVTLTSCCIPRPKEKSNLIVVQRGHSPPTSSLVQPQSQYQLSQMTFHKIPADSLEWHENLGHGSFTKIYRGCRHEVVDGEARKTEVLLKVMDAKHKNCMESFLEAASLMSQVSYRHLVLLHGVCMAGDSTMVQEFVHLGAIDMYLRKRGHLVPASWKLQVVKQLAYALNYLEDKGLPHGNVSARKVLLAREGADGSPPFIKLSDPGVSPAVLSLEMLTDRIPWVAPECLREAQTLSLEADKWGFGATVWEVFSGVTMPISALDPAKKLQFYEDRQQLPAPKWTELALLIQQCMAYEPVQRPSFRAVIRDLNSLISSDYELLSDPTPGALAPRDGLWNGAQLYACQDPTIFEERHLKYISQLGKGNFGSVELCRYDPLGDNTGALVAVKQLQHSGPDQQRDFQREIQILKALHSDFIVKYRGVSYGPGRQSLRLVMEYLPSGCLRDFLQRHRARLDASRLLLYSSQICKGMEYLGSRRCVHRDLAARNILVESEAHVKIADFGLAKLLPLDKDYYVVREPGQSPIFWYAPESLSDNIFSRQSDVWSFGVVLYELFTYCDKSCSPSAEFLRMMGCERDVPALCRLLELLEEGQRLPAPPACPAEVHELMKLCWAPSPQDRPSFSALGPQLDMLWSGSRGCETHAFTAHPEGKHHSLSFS
How it was run: as §1

[4] = molecular target: T4, TYK2 (Homo sapiens, UniProt P29597); test: Kinobeads assay with immunodetection, TYK2; conditions: for IC50: Kinobeads assay, mixed Molt4/Ramos lysate, read-out: Inhibition values (IC50) Tyk2
T4 construct: endogenous in cells; host or cells: Molt4 (ATCC CRL-1582) and Ramos (ATCC CRL-1596) cells; mixed lysate 1:2
T4 sequence (P29597 whole entry): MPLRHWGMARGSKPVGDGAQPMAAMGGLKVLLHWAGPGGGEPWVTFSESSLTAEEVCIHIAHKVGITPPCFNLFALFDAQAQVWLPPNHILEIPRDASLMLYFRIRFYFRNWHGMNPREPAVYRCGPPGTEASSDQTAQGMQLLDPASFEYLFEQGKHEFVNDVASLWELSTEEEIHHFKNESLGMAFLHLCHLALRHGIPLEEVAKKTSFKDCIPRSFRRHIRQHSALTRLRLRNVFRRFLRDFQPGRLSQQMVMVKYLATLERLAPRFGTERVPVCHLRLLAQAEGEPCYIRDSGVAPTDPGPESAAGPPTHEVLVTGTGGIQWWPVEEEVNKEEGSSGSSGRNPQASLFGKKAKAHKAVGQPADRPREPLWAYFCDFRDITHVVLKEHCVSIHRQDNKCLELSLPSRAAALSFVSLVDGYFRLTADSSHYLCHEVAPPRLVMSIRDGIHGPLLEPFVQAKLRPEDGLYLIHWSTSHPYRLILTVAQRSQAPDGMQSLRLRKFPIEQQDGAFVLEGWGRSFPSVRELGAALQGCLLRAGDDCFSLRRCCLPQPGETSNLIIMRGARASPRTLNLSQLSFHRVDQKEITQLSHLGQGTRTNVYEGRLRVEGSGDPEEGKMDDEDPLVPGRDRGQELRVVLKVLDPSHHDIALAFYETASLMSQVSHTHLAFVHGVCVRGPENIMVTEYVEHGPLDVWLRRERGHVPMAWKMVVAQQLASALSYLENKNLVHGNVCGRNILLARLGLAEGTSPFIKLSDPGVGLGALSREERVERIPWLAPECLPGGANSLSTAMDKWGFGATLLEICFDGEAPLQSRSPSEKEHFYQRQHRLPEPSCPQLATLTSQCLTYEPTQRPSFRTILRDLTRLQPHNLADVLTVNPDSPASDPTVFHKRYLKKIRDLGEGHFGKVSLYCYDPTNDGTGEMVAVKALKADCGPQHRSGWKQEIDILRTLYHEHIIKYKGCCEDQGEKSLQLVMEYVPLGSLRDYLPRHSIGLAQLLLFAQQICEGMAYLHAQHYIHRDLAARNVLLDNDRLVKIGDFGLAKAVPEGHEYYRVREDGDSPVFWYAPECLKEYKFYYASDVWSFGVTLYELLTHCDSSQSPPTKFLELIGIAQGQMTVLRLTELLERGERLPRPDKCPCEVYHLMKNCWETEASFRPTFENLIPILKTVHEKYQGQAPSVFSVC
How it was run: as §1

| IC50 [1] [nM] | IC50 [2] [nM] | IC50 [3] [nM] | IC50 [4] [nM] | Selectivity ratio over JAK2, Tyk2 [4] | Selectivity ratio over JAK2, JAK1 [1] | Selectivity ratio over JAK2, JAK3 ([3]; JAK3 over JAK2) | Structure (SMILES) |
| --- | --- | --- | --- | --- | --- | --- | --- |
| < 100 | 1000 to 10000 | 100 to 1000 | < 100 | Tyk2 = 28 |  |  | Cl.Cn1cc(Nc2ncc(F)c(NC[C@@H]3CCCN3S(C)(=O)=O)n2)cn1 [Example 75, (S)-5-fluoro-N2-(1-methyl-1H-pyrazol-4-yl)-N4-((1-(methylsulfonyl)pyrrolidin-2-yl)methyl)pyrimidine-2,4-diamine Hydrochloride] |
| < 100 | 100 to 1000 | < 100 | < 100 |  | JAK1 = 26 |  | Cc1cnc(Nc2cnn(C)c2)nc1NC[C@H]1CCCN1S(C)(=O)=O [Example 76, (R)-5-methyl-N^2-(1-methyl-1H-pyrazol-4-yl)-N^4-((1-(methylsulfonyl)pyrrolidin-2-yl)methyl)pyrimidine-2,4-diamine] |
| < 100 | 100 to 1000 | < 100 | < 100 |  | JAK1 = 28 |  | Cc1cnc(Nc2cnn(C)c2)nc1NC[C@@H]1CCCN1S(C)(=O)=O [Example 77, (S)-5-methyl-N^2-(1-methyl-1H-pyrazol-4-yl)-N^4-((1-(methylsulfonyl)pyrrolidin-2-yl)methyl)pyrimidine-2,4-diamine] |
| 100 to 1000 | 1000 to 10000 | 1000 to 10000 | 100 to 1000 |  | JAK1 = 38 |  | CN1C(=O)CCC1CNc1nc(Nc2cnn(C)c2)ncc1Cl (stereo not drawn) [Example 78, 5-(((5-chloro-2-((1-methyl-1H-pyrazol-4-yl)amino)pyrimidin-4-yl)amino)methyl)-1-methylpyrrolidin-2-one] |
| < 100 | < 100 | 100 to 1000 | < 100 | Tyk2 = 33 |  |  | Cn1cc(Nc2ncc(Cl)c(NC[C@H]3CCCN3CCC(F)(F)F)n2)cn1 [Example 80, (R)-5-chloro-N^2-(1-methyl-1H-pyrazol-4-yl)-N^4-((1-(3,3,3-trifluoropropyl)pyrrolidin-2-yl)methyl)pyrimidine-2,4-diamine] |
| < 100 | < 100 | 100 to 1000 | < 100 | Tyk2 = 11 |  |  | Cn1cc(Nc2ncc(Cl)c(NC[C@@H]3CCCN3CCC#N)n2)cn1 [Example 81, (S)-3-(2-(((5-chloro-2-((1-methyl-1H-pyrazol-4-yl)amino)pyrimidin-4-yl)amino)methyl)pyrrolidin-1-yl)propanenitrile] |
| < 100 | < 100 | 100 to 1000 | < 100 |  | JAK1 = 34 |  | Cn1cc(Nc2ncc(Cl)c(NC[C@@H]3CCCN3CCS(C)(=O)=O)n2)cn1 [Example 82, (S)-5-chloro-N^2-(1-methyl-1H-pyrazol-4-yl)-N^4-((1-(2-(methylsulfonyl)ethyl)pyrrolidin-2-yl)methyl)pyrimidine-2,4-diamine] |
| 1000 to 10000 | > 10000 | 1000 to 10000 | < 100 | Tyk2 = 650 |  |  | CC(C)NC(=O)Cn1cc(Nc2nccc(NC[C@H]3CCCN3CCC#N)n2)cn1 [Example 83, (R)-2-(4-((4-(((1-(2-cyanoethyl)pyrrolidin-2-yl)methyl)amino)pyrimidin-2-yl)amino)-1H-pyrazol-1-yl)-N-isopropylacetamide] |
| 100 to 1000 | > 10000 | 100 to 1000 | < 100 | Tyk2 = 435 |  |  | CC(C)NC(=O)Cn1cc(Nc2nccc(NC[C@H]3CCCN3CCS(C)(=O)=O)n2)cn1 [Example 84, (R)—N-isopropyl-2-(4-((4-(((1-(2-(methylsulfonyl)ethyl)pyrrolidin-2-yl)methyl)amino)pyrimidin-2-yl)amino)-1H-pyrazol-1-yl)acetamide] |
| < 100 | 100 to 1000 | 100 to 1000 | < 100 |  | JAK1 = 27 |  | CS(=O)(=O)N1CC[C@H](CNc2nc(Nc3cnn(CCO)c3)ncc2Cl)C1 [Example 85, (R)-2-(4-((5-chloro-4-(((1-(methylsulfonyl)pyrrolidin-3-yl)methyl)amino)pyrimidin-2-yl)amino)-1H-pyrazol-1-yl)ethanol] |
| < 100 | 100 to 1000 | < 100 | < 100 | Tyk2 = 33 |  |  | Cn1cc(Nc2ncc(Cl)c(NC[C@H]3CCCN3C(=O)CCC#N)n2)cn1 [Example 86, (R)-4-(2-(((5-chloro-2-((1-methyl-1H-pyrazol-4-yl)amino)pyrimidin-4-yl)amino)methyl)pyrrolidin-1-yl)-4-oxobutanenitrile] |
| 100 to 1000 | 1000 to 10000 | < 100 | 100 to 1000 |  |  | JAK3 = 33 | Cn1cc(Nc2ncc(Cl)c(NCC3COCCN3CCS(C)(=O)=O)n2)cn1 (stereo not drawn) [Example 87, 5-chloro-N^2-(1-methyl-1H-pyrazol-4-yl)-N^4-((4-(2-(methylsulfonyl)ethyl)morpholin-3-yl)methyl)pyrimidine-2,4-diamine] |
| 100 to 1000 | 100 to 1000 | 100 to 1000 | < 100 | Tyk2 = 35 |  |  | CCNC(=O)N1CCC[C@@H]1CNc1nc(Nc2cnn(C)c2)ncc1Cl [Example 88, (R)-2-(((5-chloro-2-((1-methyl-1H-pyrazol-4-yl)amino)pyrimidin-4-yl)amino)methyl)-N-ethylpyrrolidine-1-carboxamide] |
| < 100 | 100 to 1000 | 100 to 1000 | < 100 | Tyk2 = 5 |  |  | Cn1cc(Nc2ncc(Cl)c(NC[C@H]3CCCN3C(=O)NC3CC3)n2)cn1 [Example 89, (R)-2-(((5-chloro-2-((1-methyl-1H-pyrazol-4-yl)amino)pyrimidin-4-yl)amino)methyl)-N-cyclopropylpyrrolidine-1-carboxamide] |
| < 100 | 100 to 1000 | < 100 | < 100 |  | JAK1 = 23 |  | Cn1cc(Nc2ncc(Cl)c(NC[C@@H]3C[C@H](F)CN3CCC#N)n2)cn1 [Example 90, 3-((2S,4S)-2-(((5-chloro-2-((1-methyl-1H-pyrazol-4-yl)amino)pyrimidin-4-yl)amino)methyl)-4-fluoropyrrolidin-1-yl)propanenitrile] |
| < 100 | 100 to 1000 | < 100 | < 100 |  | JAK1 = 27 |  | Cn1cc(Nc2ncc(Cl)c(NC[C@@H]3C[C@H](F)CN3CCS(C)(=O)=O)n2)cn1 [Example 91, 5-chloro-N^4-(((2S,4S)-4-fluoro-1-(2-(methylsulfonyl)ethyl)pyrrolidin-2-yl)methyl)-N^2-(1-methyl-1H-pyrazol-4-yl)pyrimidine-2,4-diamine] |
| < 100 | 100 to 1000 | < 100 | < 100 |  | JAK1 = 30 |  | Cn1cc(Nc2ncc(Cl)c(NC[C@@H]3CCCN3C(=O)CCC#N)n2)cn1 [Example 92, (S)-4-(2-(((5-chloro-2-((1-methyl-1H-pyrazol-4-yl)amino)pyrimidin-4-yl)amino)methyl)pyrrolidin-1-yl)-4-oxobutanenitrile] |
| < 100 | 1000 to 10000 | 1000 to 10000 | < 100 | Tyk2 = 145 |  |  | Cn1cc(Nc2nccc(NC[C@H]3CCCN3C(=O)CCC#N)n2)cn1 [Example 93, (R)-4-(2-(((2-((1-methyl-1H-pyrazol-4-yl)amino)pyrimidin-4-yl)amino)methyl)pyrrolidin-1-yl)-4-oxobutanenitrile] |
